Measured values taken from paper PMC7363885, “Fluorescent artificial receptor-based membrane assay (FARMA) for spatiotemporally resolved monitoring of biomembrane permeability” (Communications Biology, 2020).

Tests used:
[1] = FARMA: permeation of analytes into FAR-loaded liposomes (fluorescence, cuvette or stopped-flow); settings: for membrane permeability (in words): FARMA with FAR-loaded liposomes or GUVs
From the text: Elementary physical parameters, such as permeability coefficients, can be extracted from the full kinetic FARMA data. This kinetic profile → parameter mapping requires some assumptions to be made in regard to the permeation mechanism. We applied a reported permeation model for liposomes[31] to arrive at permeation rate constants (kp) and apparent permeability coefficients (Papp). The derivation of the mathematical relation (1), linking the fundamental permeability rate constant and permeability coefficient to experimental measurable kobs rate constants, the known total analyte and total FAR concentration, and the experimentally determined liposome radius (r), is shown in the Supplementary Information.1 Papp=kp⋅r/3=kobs/canalyte⋅cFAR⋅r/3 […]
The volume-to-surface correction factor r/3 accounts for the fact that the observed rates depend on the size, i.e., radius r, of the liposomal assembly. […] The initial-rate method can also be applied, see the Supplementary Information. Moreover, kobs/canalyte can be estimated by single-point measurements at selected canalyte concentration.
A solution of 2.5 mg/mL of POPC and 0.33 mg/mL of POPS in chloroform was purged with nitrogen and dried overnight under […] vacuum. […] The resulting FAR-loaded liposomes were separated from non-encapsulated species by size-exclusion chromatography (NAP-25 column), while maintaining the same buffer. The absence of non-encapsulated FAR was confirmed by adding a non-membrane-permeable species such as tryptophan to a fluorescence cuvette containing 25 µL of liposomes diluted in 1 mL HEPES (10 mM) buffer. Complete removal of non-encapsulated FAR is indicated by the absence of a significant fluorescence change upon Trp addition.
In a typical experiment, 20 µL of liposome solution loaded with FAR was diluted in 1 mL HEPES buffer (10 mM, pH 7.0) in a 1 mL quartz cuvette. An emission spectrum was recorded after 10 min of “equilibration time” on a Varian Eclipse spectrofluorometer thermostated at 22 °C with a water bath using λexc = 400 nm for FAR-1, λexc = 310 nm for FAR-2, and λexc = 330 nm for FAR-3. In the time-resolved experiments, the emission intensity at λobs = 450 nm for FAR-1, λobs = 370 nm for FAR-2, and λobs = 370 and 500 nm for FAR-3 (the latter is the emerging excimer band for certain FAR-3•analyte complexes) was recorded with an averaging time of 0.5 s. […] For single-point experiments, a full spectrum was recorded after a fixed time or several time intervals after analyte addition. […] Only FAR-analyte combinations were used for FARMA, for which no significant autofluorescence and competitive light absorption of the analyte occurred.
For each experiment, measurements from 6 injections were accumulated and the average of these traces was used for data analysis.
Calculation of the unimolecular permeation rate constants ( kp) and of the apparent permeability coefficients (Papp).
The passive diffusion (permeation) of small non-charged compounds follows a modified Fick’s law and can be expressed by a first order kinetics.1 Similar to first order chemical reactions, the kinetics curve can therefore be fitted monoexponentially to obtained the observed permeation rates (kobs). In our assay set-up, such an exponential fit is an approximation, since it neglects that a certain fraction of transported analyte is bound to the FAR and cannot exit the liposome. Nevertheless, the fit of the kinetic curves of the […]
approximation is justified.

FAR-1 = assay: Fluorescence titration, FAR•analyte complex formation in homogeneous solution; assay type: binding
Description: Fluorescence titrations were carried out in aqueous HEPES buffer (10 mM, pH 7, 22 °C) unless stated otherwise. To a solution of the FAR (typically at 10–30 μM) was stepwise added a solution of the analyte (typically up to 2 mM) and the fluorescence spectra were recorded. The normalized emissions at 450 nm (FAR-1) or at 370 nm (FAR-2) were fitted with an equation for a 1 : 1 binding by a least-square fit. The resulting affinity constants are reported in Supplementary Table 1. Representative titration plots are shown in Supplementary Fig. 1. Note that the high CB8-dye binding affinities correspond to a near quantitative degree of host-dye complexation, i.e., quantitative formation of the FAR, such that the subsequent binding of the analyte can be treated independently.

[2] = FAR-1, 10 mM HEPES buffer (pH 7), 1:1 binding model, error estimate ≤ 20%
[3] = monoexponential fit, analyte 40 µM (bulk), FAR-2 ca. 500 µM in the liposome interior, 20% error

Oc1ccccc1O [1,2-dihydroxybenzene]
membrane permeability (in words) [1]: “instantaneously” permeating
Ka (FAR-1; [2]): 20 10^3 M−1

O=C1C=CC(=O)C=C1 [1,4-benzoquinone]
Ka (FAR-1; [2]): 0.5 10^3 M−1

O=P(O)(O)Oc1ccc2ccccc2c1 [2-naphthyl phosphate]
membrane permeability (in words) [1]: membrane-impermeable

Cc1ccccc1O [2Me-phenol, 2-methylphenol]
kobs [1, 3]: 0.33 s–1
kobs ([1]; source data of Fig. 5): 0.33
log(kobs) ([1]; source data of Fig. 5): -0.4815

O=C(O)C(=O)Cc1ccc(O)cc1 [4-hydroxyphenylpyruvic acid]
Ka (FAR-1; [2]): 17 10^3 M−1

Nc1ccc(Br)cc1 [4Br-aniline, 4-bromoaniline]
kobs [1, 3]: 4.0 s–1
kobs ([1]; source data of Fig. 5): 4
log(kobs) ([1]; source data of Fig. 5): 0.6021

N#Cc1ccc(N)cc1 [4CN-aniline, 4-cyanoaniline]
kobs [1, 3]: 6.5 s–1
kobs ([1]; source data of Fig. 5): 6.5
log(kobs) ([1]; source data of Fig. 5): 0.8129

Nc1ccc(Cl)cc1 [4Cl-aniline, 4-chloroaniline]
kobs [1, 3]: 4.0 s–1
kobs ([1]; source data of Fig. 5): 4
log(kobs) ([1]; source data of Fig. 5): 0.6021

Oc1ccc(Cl)cc1 [4Cl-phenol, 4-chlorophenol]
kobs [1, 3]: 2.2 s–1
kobs ([1]; source data of Fig. 5): 2.2
log(kobs) ([1]; source data of Fig. 5): 0.3424

CCc1ccc(O)cc1 [4Et-phenol, 4-ethylphenol]
kobs [1, 3]: 0.24 s–1
kobs ([1]; source data of Fig. 5): 0.24
log(kobs) ([1]; source data of Fig. 5): -0.6198
Ka (FAR-1; [2]): 1.2 10^3 M−1

Nc1ccc(F)cc1 [4F-aniline]
kobs [1, 3]: 4.4 s–1
kobs ([1]; source data of Fig. 5): 4.4
log(kobs) ([1]; source data of Fig. 5): 0.6434

Oc1ccc(F)cc1 [4F-phenol]
kobs [1, 3]: 2.8 s–1
kobs ([1]; source data of Fig. 5): 2.8
log(kobs) ([1]; source data of Fig. 5): 0.4472

Nc1ccc(I)cc1 [4I-aniline]
kobs [1, 3]: 3.1 s–1
kobs ([1]; source data of Fig. 5): 3.1
log(kobs) ([1]; source data of Fig. 5): 0.4914

Oc1ccc(I)cc1 [4I-phenol, 4-iodophenol]
kobs [1, 3]: 0.69 s–1
kobs ([1]; source data of Fig. 5): 0.69
log(kobs) ([1]; source data of Fig. 5): -0.1611

O=[N+]([O-])c1ccc(O)cc1 [4NO2-phenol]
kobs [1, 3]: 38 s–1
kobs ([1]; source data of Fig. 5): 38
log(kobs) ([1]; source data of Fig. 5): 1.58

N[C@@H](Cc1c[nH]c2ccc(O)cc12)C(=O)O [5HO-Trp, 5-hydroxy tryptophan]
Ka (FAR-1; [2]): 7.7 10^3 M−1

CN(C)c1ccc(C#N)cc1 [DMABN, 4-(N,N-dimethylamino) benzonitrile]
kobs [1, 3]: 0.68 s–1
kobs ([1]; source data of Fig. 5): 0.68
log(kobs) ([1]; source data of Fig. 5): -0.1675

O=C1CCC(=O)N1c1ccccc1 [N-phenylsuccinimide]
kobs [1, 3]: 1.1 s–1
kobs ([1]; source data of Fig. 5): 1.1
log(kobs) ([1]; source data of Fig. 5): 0.04139
Ka (FAR-1; [2]): 30 10^3 M−1

CC(=O)NC(Cc1c[nH]c2ccccc12)C(=O)O (centres unmarked) [NAc-Trp]
Ka (FAR-1; [2]): 50 10^3 M−1

COC(=O)[C@@H](N)Cc1c[nH]c2ccccc12 [TrpOMe, tryptophan methyl ester]
membrane permeability (in words) [1]: rather quickly permeating
Ka (FAR-1; [2]): 14 10^3 M−1

CNC[C@H](O)c1ccc(O)c(O)c1 [adrenaline]
membrane permeability (in words) [1]: very slowly permeating
Ka (FAR-1; [2]): < 1 10^3 M−1

c1ccccc1 [benzene]
Ka (FAR-1; [2]): 4 10^3 M−1

c1ccc2[nH]cnc2c1 [benzimidazole]
kobs [1, 3]: 2.7 s–1
kobs ([1]; source data of Fig. 5): 2.7
log(kobs) ([1]; source data of Fig. 5): 0.4314
Ka (FAR-1; [2]): 7.5 10^3 M−1

CC(C)(O/N=C(\C(=O)N[C@@H]1C(=O)N2C(C(=O)[O-])=C(C[n+]3ccccc3)CS[C@H]12)c1csc(N)n1)C(=O)O [ceftazidime, reference compound]
Ka (FAR-1; [2]): < 1 10^3 M−1

O=C(N[C@H](CO)[C@H](O)c1ccc([N+](=O)[O-])cc1)C(Cl)Cl [chloramphenicol, reference compound]
Ka (FAR-1; [2]): < 1 10^3 M−1

NCCc1ccc(O)c(O)c1 [dopamine]
membrane permeability (in words) [1]: very slowly permeating
Ka (FAR-1; [2]): 0.10 10^3 M−1

O=C(O)Cc1cc(O)ccc1O [homogentisic acid]
Ka (FAR-1; pH 7): 0.14

c1ccc2[nH]ncc2c1 [indazole]
kobs [1, 3]: 2.4 s–1
kobs ([1]; source data of Fig. 5): 2.4
log(kobs) ([1]; source data of Fig. 5): 0.3802

c1ccc2ccccc2c1 [naphthalene]
membrane permeability (in words) [1]: permeating
Ka (FAR-1; [2]): > 50 10^3 M−1

COc1ccc2cc([C@H](C)C(=O)O)ccc2c1 [naproxen, reference compound]
Ka (FAR-1; [2]): 2 10^3 M−1

CC(=O)Nc1ccc(O)cc1 [paracetamol, reference compound]
Ka (FAR-1; [2]): 7 10^3 M−1

Nc1c(F)c(F)c(F)c(F)c1F [pentafluoroaniline]
kobs [1, 3]: 0.51 s–1
kobs ([1]; source data of Fig. 5): 0.51
log(kobs) ([1]; source data of Fig. 5): -0.2924

NCCc1ccccc1 [phenethylamine]
kobs [1, 3]: 0.22 s–1
kobs ([1]; source data of Fig. 5): 0.22
log(kobs) ([1]; source data of Fig. 5): -0.6576
Ka (FAR-1; [2]): 8 10^3 M−1

OC[C@H]1O[C@@H](Oc2ccccc2)[C@H](O)[C@@H](O)[C@H]1O [phenyl-β-D-galactopyranoside]
membrane permeability (in words) [1]: slowly permeating
time of FARMA signal response (t) ([1]; slow response, without enzyme): > 5 min
Ka (FAR-1; [2]): 30 10^3 M−1

CCCN(CCOc1c(Cl)cc(Cl)cc1Cl)C(=O)n1ccnc1 [prochloraz]
Ka (FAR-1; [2]): 2.8 10^3 M−1

CCC(=O)Nc1ccc(Cl)c(Cl)c1 [propanil]
kobs [1, 3]: 42 s–1
kobs ([1]; source data of Fig. 5): 42
log(kobs) ([1]; source data of Fig. 5): 1.623
Ka (FAR-1; [2]): 8 10^3 M−1

c1ccc2ncccc2c1 [quinoline]
Ka (FAR-1; [2]): 2.2 10^3 M−1

C=C(C)[C@H]1Cc2c(ccc3c2O[C@@H]2COc4cc(OC)c(OC)cc4[C@@H]2C3=O)O1 [rotenone]
Ka (FAR-1; [2]): 4.8 10^3 M−1
